For assay [1], the system named is mice (Concanavalin A-induced hepatitis). The assay can be described thus: Concanavalin A-induced hepatitis in mice. The assay is classed as in vivo, male C57BL/6 mice. The following applies: for ALT / AST: serum 18-24 h, mean±SEM. As to the method: Forty male C57BL/6 mice weighing between 18 g and 22 g were divided into five treatment groups of eight mice each as shown below.
The mice were placed in a restrainer and injected intravenously (i.v.) in the tail with a test peptide or vehicle in 1% DMSO in PBS. The mice were then immediately injected i.v. with 15 mg/kg of concanavalin A dissolved in sterile PBS. The injection volume was 5 ml/kg (100 μI/20 g mouse) with a concanavalin A concentration of 3.0 mg/ml. The next morning (18-24 hours later), these mice were euthanized by CO2 inhalation and blood was collected by cardiac puncture. The serum was then separated and analyzed for AST and ALT.
ALT and AST values are given as Sigma-Frankel units/ml, mean±SEM.

Assay [2] relates to mice (lethal Salmonella typhimurium LPS challenge). The assay is described as follows: Lethal lipopolysaccharide mouse model. The assay is classed as in vivo, male C57BL/6 mice. The settings on record: number dosed 8, LPS 30 mg/kg i.v. As to the method:
In this experiment, the ability of anti-inflammatory compounds of the invention to rescue mice challenged with a lethal amount of lipopolysaccharide (LPS) was assessed. LPS is a bacterial product that induces many of the responses that are seen in septic patients, including death. In this model, Salmonella typhimurium LPS in phosphate-buffered […] (PBS) was administered to male C57BL/6 mice by intravenous injection at a dose of 30 mg/kg (600 μg/20 g mouse). This dose was established in control experiments to be lethal in 100% of the mice that received it. Mice were treated with the test peptide by intravenous injection (in 1% dimethyl sulfoxide in PBS) immediately prior to the LPS injection and 24 hours after the LPS injection. Mice were monitored twice daily for up to 8 days after receiving LPS and the duration of survival and the number of surviving mice were recorded.

Another assay deals with T1, NEMO (Homo sapiens, UniProt Q9Y6K9).
T1 construct: bacterially expressed version of full length NEMO fused at its NH2-terminus to glutathione S-transferase; made in house; host or cells: bacteria (pGEX-4T1)
T1 sequence (Q9Y6K9 whole entry, the tested form may be a part): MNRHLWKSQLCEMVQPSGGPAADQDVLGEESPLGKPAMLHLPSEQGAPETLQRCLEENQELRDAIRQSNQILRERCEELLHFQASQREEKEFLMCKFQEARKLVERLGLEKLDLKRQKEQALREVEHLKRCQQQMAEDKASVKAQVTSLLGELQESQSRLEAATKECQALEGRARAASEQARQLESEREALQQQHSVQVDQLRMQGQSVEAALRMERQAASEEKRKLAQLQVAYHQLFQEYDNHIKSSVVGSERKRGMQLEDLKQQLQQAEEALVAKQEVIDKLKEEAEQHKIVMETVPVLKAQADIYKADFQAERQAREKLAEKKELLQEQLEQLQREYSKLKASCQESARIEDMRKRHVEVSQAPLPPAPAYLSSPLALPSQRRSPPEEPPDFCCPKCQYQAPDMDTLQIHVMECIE
The assay is described as follows: GST pull-down of IKKβ NBD mutants by GST-NEMO. The settings on record: GST pulldown assay; NBD mutations in IKKβ. The class given is binding. The source says: To identify the NEMO-interacting domain of IKKβ we performed in vitro pull down assays (Zhong et al., (1997) Cell 89, 413-424) using a bacterially expressed version of full length NEMO fused at its NH2-terminus to glutathione S-transferase (GST-NEMO; FIG. 1A). Various truncation mutants lacking different functional domains of IKKβ (catalytic domain, leucine zipper and helix-loop-helix; FIG. 1A) were constructed.
These mutants were labeled by in vitro translation with [^35S]-methionine (input; FIG. 1B), mixed with either GST alone or GST-NEMO, and precipitated using glutathione-agarose. […]
Further mutations in the NBD were analyzed (see Table 1) for their ability to affect NEMO binding to IKKβ using the GST pulldown assay explained in Example 3.

Another assay concerns the target T2, IKKα-NEMO interaction (Homo sapiens, UniProt Q9Y6K9).
T2 construct: bacterially expressed version of full length NEMO fused at its NH2-terminus to glutathione S-transferase; made in house; host or cells: bacteria (GST-NEMO); in vitro transcription/translation (IKKα)
The assay is described as follows: GST pull-down of IKKα by GST-NEMO in the presence of NBD peptide. The assay is classed as binding. The settings on record: peptide 500 and 1000 μM. As to the method: (A) Sequences of the NBD wild type (SEQ ID NO:177) and scrambled control peptides (SEQ ID NO:178). The wild type peptide corresponds to residues 734 to 744 of IKKβ. (B) GST pull-down analysis was performed using GST-NEMO and in vitro transcribed and translated IKKα (upper panel) and IKKβ (middle panel) in the presence or absence of either vehicle (2% DMSO), scrambled or wild type NBD peptide (500 and 1000 μM of each peptide). […] (C) Densitometric analysis of autoradiograph bands obtained following GST pull-down of IKKa and IKKb using GST-NEMO in the presence of a range of concentrations of wild type NBD peptide. […] The data are presented as the pixel density as a percentage of control (no peptide) and represent means±sd (n=11). Analysis was performed using the NIH-Image software.

Assay [3] relates to mice (PMA-induced ear edema). The assay is described as follows: PMA-induced ear edema in mice. The class given is in vivo. The following applies: topical 40 μg/ear, 30 min before and after PMA 5 μg/ear, 6 h. The method, then:
The NBD peptide was tested for its ability to inhibit inflammatory responses in animals using two distinct models of acute inflammation. In the first model, ear edema was induced in mice using phorbol-12-myristate-13-acetate (PMA) and the effects of topical administration of the NBD peptides were measured. Ear edema using PMA was induced in replicate groups of age and sex matched mice as previously described (Chang et al., (1987) Eur. J. Pharmacol. 142, 197-205). Twenty μl of either NBD peptides (200 μg/ear), dexamethasone (40 μg/ear) or vehicle (DMSO:Ethanol; 25:75 v/v) was applied topically to the right ear of mice thirty minutes before and thirty minutes after the application of 20 μl of PMA (5 μg/ear) dissolved in ethanol. Ear swelling was measured six hours after PMA application using a microgauge and expressed as the mean difference in thickness between the treated (right) and untreated (left) ears. Statistical analysis of the data was performed using the students t-test. A value of p<0.05 was considered statistically significant.

In assay [4] the test system is mice (zymosan-induced peritonitis). The assay can be described thus: Zymosan-induced peritonitis in mice. The class given is in vivo, mice (C57BL/6NCR). The following applies: dexamethasone 100 mg/ml i.p. with zymosan. As to the method: In a second model, peritonitis was induced in mice by intraperitoneal (i.p.) injection of zymosan either alone or in combination with dexamethasone or the NBD peptides. For zymosan-induced peritonitis, measurement of peritoneal exudates and inflammatory cell collections from replicate groups of age and sex matched mice (C57BL/6NCR) were performed as previously described (Getting et al., (1998) Immunology 95, 625-630). Groups of animals were injected concomitantly with one ml zymosan (1 mg/ml) and either dexamethasone (100 mg/ml) or the NBD peptides (200 mg/ml). The concentration of NOX (nitrate plus nitrite) present in the inflammatory exudates was measured using a colorimetric assay kit (Alexis Corporation) according to the manufacturers protocol.

Setting [5] is: concanavalin A 15 mg/kg i.v. + 0.5 mg/kg i.v.
[6] abbreviates: concanavalin A 15 mg/kg i.v. + 1 mg/kg i.v.
The mark [7] stands for this setting: concanavalin A 15 mg/kg i.v. + 5 mg/kg i.v.

Values joined by “and” are separate entries in the source; they are usually repeats but may differ in a detail not shown here. Equal entries are not always repeated. [ ]: non-standard residue; d: D form.

T2 sequence (Q9Y6K9 whole entry, the tested form may be a part): as above

As for “H-yaraarraarrLDWSWL-NH2 (H-[dY][dA][dR][dA][dA][dR][dR][dA][dA][dR][dR]LDWSWL-NH2; SMILES CC(C)C[C@H](NC(=O)[C@H](Cc1c[nH]c2ccccc12)NC(=O)[C@H](CO)NC(=O)[C@H](Cc1c[nH]c2ccccc12)NC(=O)[C@H](CC(=O)O)NC(=O)[C@H](CC(C)C)NC(=O)[C@@H](CCCNC(=N)N)NC(=O)[C@@H](CCCNC(=N)N)NC(=O)[C@@H](C)NC(=O)[C@@H](C)NC(=O)[C@@H](CCCNC(=N)N)NC(=O)[C@@H](CCCNC(=N)N)NC(=O)[C@@H](C)NC(=O)[C@@H](C)NC(=O)[C@@H](CCCNC(=N)N)NC(=O)[C@@H](C)NC(=O)[C@H](N)Cc1ccc(O)cc1)C(N)=O) [compound 10]”, in assay [1] (5 mg/kg), the “liver injury by concanavalin A, gross pathology” value is on record as “prevented”. Moreover, the “protection against concanavalin A-induced liver damage” value in assay [1] (5 mg/kg) is listed as “able to protect”. Further, the figures for the ALT in assay [1] (setting [5]), in assay [1] (setting [6]) and in assay [1] (setting [7]) were 1919 ± 234 Sigma-Frankel units/ml, 1910 ± 281 Sigma-Frankel units/ml and 72 ± 19 Sigma-Frankel units/ml, respectively. Besides, the AST in assay [1] (setting [5]) was 1217 ± 192 Sigma-Frankel units/ml; in assay [1] (setting [6]) it was 1264 ± 270 Sigma-Frankel units/ml; in assay [1] (setting [7]) it was 99 ± 14 Sigma-Frankel units/ml. For the same molecule, the “survival (day five), number of mice surviving” value in assay [2] (dose 1 mg/kg i.v.) was 5; in assay [2] (dose 5 mg/kg i.v.), 8 and 6.

As for “LDASWL (Description of Artificial Sequence: Synthetic NBD peptide)”, the “Binds to NEMO” value in the assay with NEMO was “no”. Turning to “NBD wild type (SEQ ID NO:177): wild type peptide corresponding to residues 734 to 744 of IKKβ (FTALDWSWLQT; Description of Unknown: Unknown wildtype NBD peptide)”, the “interaction of IKKα with NEMO (GST pull-down)” value with IKKα-NEMO interaction is reported as “prevents”. In the case of “LDASAL (Description of Artificial Sequence: Synthetic NBD peptide)”, the “Binds to NEMO” value in the assay with NEMO is listed as “no”. On to “LEWSWL (Description of Artificial Sequence: Synthetic NBD peptide)”, for which the “Binds to NEMO” value in the assay with NEMO was “yes”. The same measure, in the same setting: to LDFSWL belongs “yes”; to “LDWSWL (Description of Artificial Sequence: Synthetic NBD peptide)”, “yes”.

On to ADWSWL, for which the “Binds to NEMO” value on NEMO is listed as “yes”. Still for that read-out and setting: to “LDWSAL (Description of Artificial Sequence: Synthetic NBD peptide)” belongs “no”. On the same count and under the same terms, next, “LNWSWL (Description of Artificial Sequence: Synthetic NBD peptide)”: “yes”. Turning to `C[C@@H]1C[C@H]2[C@@H]3CCC4=CC(=O)C=C[C@]4(C)[C@@]3(F)[C@@H](O)C[C@]2(C)[C@@]1(O)C(=O)CO` [dexamethasone], in assay [3], the “inhibition of PMA-induced ear thickening” value was determined as 82%. The “reduction of NOX in peritoneal exudates” value in assay [4] is on record as 86±7%.

Values taken from US8242240B2, “Anti-inflammatory compounds and uses thereof” (Yale University, priority 2000, dated 2012).
